Results reported in US12319664B2, “Herbicidally active 3-phenylisoxazoline-5-carboxamides of cyclopentenylcarboxylic acid derivatives” (Bayer Aktiengesellschaft, priority 2018, dated 2025).

How the values were obtained:
[1] = test system: AVEFA; assay: Post-emergence herbicidal action against AVEFA; type: in vivo, Avena fatua; details: application rate 80 g/ha, rated visually after about 3 weeks
Procedure: (§1) [table] 2. Post-emergence herbicidal action against harmful plants and crop plant compatibility Seeds of monocotyledonous and dicotyledonous weeds and crop plants are placed in sandy loam in plastic or wood-fibre pots, covered with soil and cultivated in a greenhouse under controlled growth conditions. 2 to 3 weeks after sowing, the test plants are treated at the one-leaf stage. The compounds of the invention, formulated in the form of wettable powders (WP) or as emulsion concentrates (EC), are then sprayed onto the green parts of the plants as aqueous suspension or emulsion with addition of 0.5% additive at a water application rate of 600 l/ha (converted). After the test plants have been kept in the greenhouse under optimum growth conditions for about 3 weeks, the activity of the preparations is rated visually in comparison to untreated controls. For example, 100% activity=the plants have died, 0% activity=like control plants.

[2] = test system: POLCO; assay: Post-emergence herbicidal action against POLCO; type: in vivo, Polygonum convolvulus; details: application rate 80 g/ha, rated visually about 3 weeks after treatment
Procedure: as §1

[3] = test system: VERPE; assay: Post-emergence herbicidal action against VERPE; type: in vivo, Veronica persica; details: application rate 80 g/ha
Procedure: as §1

[4] = test system: AMARE; assay: Post-emergence herbicidal action against AMARE; type: in vivo, Amaranthus retroflexus; details: application rate 80 g/ha, rated visually about 3 weeks after treatment
Procedure: as §1

[5] = test system: ECHCG; assay: Post-emergence herbicidal action against ECHCG; type: in vivo, Echinochloa crus-galli; details: application rate 80 g/ha, rated visually after about 3 weeks
Procedure: as §1

[6] = test system: STEME; assay: Post-emergence herbicidal action against STEME; type: in vivo, Stellaria media; details: application rate 80 g/ha, rated visually about 3 weeks after treatment
Procedure: as §1

[7] = test system: ALOMY; assay: Post-emergence herbicidal action against ALOMY; type: in vivo, Alopecurus myosuroides; details: application rate 80 g/ha, rated visually after about 3 weeks
Procedure: as §1

[8] = test system: PHBPU; assay: Post-emergence herbicidal action against PHBPU; type: in vivo, Pharbitis purpurea; details: application rate 80 g/ha, rated visually about 3 weeks after treatment
Procedure: as §1

[9] = test system: LOLRI; assay: Post-emergence herbicidal action against LOLRI; type: in vivo, Lolium rigidum; details: application rate 80 g/ha, rated visually after about 3 weeks
Procedure: as §1

[10] = test system: HORMU; assay: Post-emergence herbicidal action against HORMU; type: in vivo, Hordeum murinum; details: application rate 80 g/ha
Procedure: as §1

[11] = test system: SETVI; assay: Post-emergence herbicidal action against SETVI; type: in vivo, Setaria viridis; details: application rate 80 g/ha, rated visually after about 3 weeks
Procedure: as §1

[12] = test system: ABUTH; assay: Post-emergence herbicidal action against ABUTH; type: in vivo, Abutilon theophrasti; details: application rate 80 g/ha, rated visually about 3 weeks after treatment
Procedure: as §1

Compound	Herbicidal action against [%] AVEFA [1] [%]	Herbicidal action against [%] POLCO [2] [%]	Herbicidal action against [%] VERPE [3] [%]	Herbicidal action against [%] AMARE [4] [%]	Herbicidal action against [%] ECHCG [5] [%]	Herbicidal action against [%] STEME [6] [%]	Herbicidal action against [%] ALOMY [7] [%]	Herbicidal action against [%] PHBPU [8] [%]	Herbicidal action against [%] LOLRI [9] [%]	Herbicidal action against [%] HORMU [10] [%]	Herbicidal action against [%] SETVI [11] [%]	Herbicidal action against [%] ABUTH [12] [%]
CCOC(=O)[C@@H]1C=C[C@H](NC(=O)C2(C(F)(F)F)CC(c3ccccc3)=NO2)C1 (some centres unmarked) [Example I-021]	100	90	80	90	80	80	90	80	90	90	90	80
Cc1cc(C2=NOC(C(=O)NC3C=CC(C(=O)OCCCl)C3)(C(F)(F)F)C2)cc(C(F)(F)F)c1 (mixture of isomers) [Example I-049]	90	–	80	90	–	–	90	90	90	90	–	–
CC1(C(=O)NC2C=CC(C(=O)O)C2)CC(c2cccc(C#N)c2)=NO1 (mixture of isomers) [Example I-070]	100	90	80	90	90	80	90	80	80	90	90	80
O=C(OCC(F)(F)F)[C@@H]1C=C[C@H](NC(=O)C2(C(F)(F)F)CC(c3ccccc3)=NO2)C1 (some centres unmarked) [Example I-030]	100	90	80	90	80	–	90	80	100	90	90	–
C=CC1(C(=O)NC2CC=C(C(=O)NS(N)(=O)=O)C2)CC(c2cc(F)cc(F)c2)=NO1 (mixture of isomers) [IV-10]	90	–	–	80	90	–	–	90	90	90	–	–
C=CC1(C(=O)NC2C=CC(C(=O)NS(=O)(=O)CC(=O)OC)C2)CC(c2cc(F)cc(F)c2)=NO1 (mixture of isomers) [II-18]	100	–	80	80	80	80	100	80	80	90	90	–
O=C(C1C=CC(NC(=O)C2(C(F)(F)F)CC(c3cc(F)cc(F)c3)=NO2)C1)N1CCCO1 (mixture of isomers) [II-32]	90	90	80	80	90	90	90	–	90	90	80	80
O=C(OCCCl)C1C=CC(NC(=O)C2(C(F)(F)F)CC(c3cccc(Cl)c3)=NO2)C1 (mixture of isomers) [Example I-045]	90	–	–	–	80	80	100	80	80	90	80	80
CC(C)(C)OC(=O)[C@@H]1C=C[C@H](NC(=O)C2(C)CC(c3cccc(C#N)c3)=NO2)C1 (some centres unmarked) [Example I-095]	–	90	80	–	–	–	90	90	–	–	–	–
COc1cc(OC)cc(C2=NOC(C(=O)NC3C=CC(C(=O)OCCCl)C3)(C(F)(F)F)C2)c1 (mixture of isomers) [Example I-044]	80	–	–	80	90	–	–	80	–	100	–	90
C=C[C@]1(C(=O)N[C@H]2C=C[C@H](C(=O)OC)C2)CC(c2cc(F)cc(F)c2)=NO1 [Example I-054]	100	80	90	80	90	80	90	80	100	90	80	–
C=CC1(C(=O)NC2C=CC(C(=O)OC)C2)CC(c2cc(F)cc(F)c2)=NO1 (mixture of isomers) [Example I-035]	90	80	80	80	90	90	90	–	90	90	80	80
O=C(OCC(F)(F)F)C1C=CC(NC(=O)C2(C(F)(F)F)CC(c3cccc(Cl)c3)=NO2)C1 (mixture of isomers) [Example I-051]	90	–	80	–	80	90	100	80	90	90	–	80
CC1(C(=O)NC2C=CC(C(=O)NC(C)(C)C(F)(F)F)C2)CC(c2cc(F)cc(F)c2)=NO1 (mixture of isomers) [II-08]	–	–	80	–	–	90	80	90	–	–	–	–
C=CC1(C(=O)N[C@H]2C=C[C@H](C(=O)NC(C)(C)C#N)C2)CC(c2cc(F)cc(F)c2)=NO1 (some centres unmarked) [II-19]	–	–	–	–	–	–	–	90	–	–	–	–
C=CC1(C(=O)NC2C=CC(C(=O)NC(C)(C)C(F)(F)F)C2)CC(c2cc(F)cc(F)c2)=NO1 (single isomer, unassigned) [II-24]	–	–	80	–	–	–	–	80	–	–	–	–
CC(C)(C)OC(=O)[C@@H]1C=C[C@H](NC(=O)C2(C)CC(c3cc(F)cc(F)c3)=NO2)C1 (some centres unmarked) [Example I-007]	90	80	90	–	90	90	90	90	90	90	90	80
COC(=O)[C@@H]1C=C[C@H](NC(=O)C2(C(F)(F)F)CC(c3ccccc3)=NO2)C1 (some centres unmarked) [Example I-026]	100	80	80	90	80	80	100	80	90	90	90	–
CCOC(=O)C1C=CC(NC(=O)C2(C)CC(c3cccc(C#N)c3)=NO2)C1 (mixture of isomers) [Example I-069]	90	80	80	80	90	80	90	–	90	90	80	80
